For one assay, the target named is Sigma1. Description: radioligand competition binding.
In the next assay the target is PBR. Description: radioligand competition binding.
Another assay has as its target Sigma2. The assay is described as follows: radioligand competition binding.
Another assay addresses D5 (Homo sapiens, UniProt P21918). Description: biochemical.
The target in another assay is DAT (Homo sapiens, UniProt Q01959). The assay is described as follows: biochemical.
The target in the next assay is DOR (Homo sapiens, UniProt P41143). The assay is described as follows: biochemical.
The next assay concerns the target HERG (Homo sapiens, UniProt Q12809). Description: biochemical.
The target in a further assay is NOP (Homo sapiens, UniProt P41146). Description: biochemical.
Another assay has as its target β1 (Homo sapiens, UniProt P08588). The assay is described as follows: biochemical.
Another assay concerns the target β3 (Homo sapiens, UniProt P13945). The assay is described as follows: biochemical.

pKi: −log10 of the molar value.

β1, sequence (P08588 whole entry): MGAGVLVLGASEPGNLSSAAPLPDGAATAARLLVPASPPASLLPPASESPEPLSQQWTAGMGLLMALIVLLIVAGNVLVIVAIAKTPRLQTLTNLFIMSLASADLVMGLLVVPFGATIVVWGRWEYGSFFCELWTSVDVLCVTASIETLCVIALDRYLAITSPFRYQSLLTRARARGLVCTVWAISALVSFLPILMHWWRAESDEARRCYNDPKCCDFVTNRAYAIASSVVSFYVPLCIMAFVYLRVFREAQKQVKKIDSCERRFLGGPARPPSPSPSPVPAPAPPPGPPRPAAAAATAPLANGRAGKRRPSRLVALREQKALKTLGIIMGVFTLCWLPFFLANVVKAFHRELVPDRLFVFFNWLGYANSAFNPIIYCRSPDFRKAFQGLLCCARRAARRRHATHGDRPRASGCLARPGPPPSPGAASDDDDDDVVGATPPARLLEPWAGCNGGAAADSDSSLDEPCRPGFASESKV
DAT, sequence (Q01959 whole entry): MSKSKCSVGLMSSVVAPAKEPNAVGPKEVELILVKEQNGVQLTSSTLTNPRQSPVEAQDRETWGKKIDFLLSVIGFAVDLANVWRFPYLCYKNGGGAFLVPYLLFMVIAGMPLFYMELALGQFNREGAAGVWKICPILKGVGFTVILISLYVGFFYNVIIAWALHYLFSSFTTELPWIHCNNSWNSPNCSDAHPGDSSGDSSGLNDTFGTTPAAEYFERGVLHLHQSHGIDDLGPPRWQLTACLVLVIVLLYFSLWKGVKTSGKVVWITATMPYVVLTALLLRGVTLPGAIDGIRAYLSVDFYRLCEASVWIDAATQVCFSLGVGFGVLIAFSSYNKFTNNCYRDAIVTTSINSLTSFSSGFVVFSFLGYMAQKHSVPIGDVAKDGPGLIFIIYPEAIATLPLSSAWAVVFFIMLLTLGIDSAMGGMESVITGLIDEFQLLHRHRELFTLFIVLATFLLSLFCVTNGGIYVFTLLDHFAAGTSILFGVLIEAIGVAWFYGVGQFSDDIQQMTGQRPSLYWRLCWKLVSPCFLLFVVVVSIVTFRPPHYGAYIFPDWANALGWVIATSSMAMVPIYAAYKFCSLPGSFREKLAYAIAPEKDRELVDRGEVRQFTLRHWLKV
D5, sequence (P21918 whole entry): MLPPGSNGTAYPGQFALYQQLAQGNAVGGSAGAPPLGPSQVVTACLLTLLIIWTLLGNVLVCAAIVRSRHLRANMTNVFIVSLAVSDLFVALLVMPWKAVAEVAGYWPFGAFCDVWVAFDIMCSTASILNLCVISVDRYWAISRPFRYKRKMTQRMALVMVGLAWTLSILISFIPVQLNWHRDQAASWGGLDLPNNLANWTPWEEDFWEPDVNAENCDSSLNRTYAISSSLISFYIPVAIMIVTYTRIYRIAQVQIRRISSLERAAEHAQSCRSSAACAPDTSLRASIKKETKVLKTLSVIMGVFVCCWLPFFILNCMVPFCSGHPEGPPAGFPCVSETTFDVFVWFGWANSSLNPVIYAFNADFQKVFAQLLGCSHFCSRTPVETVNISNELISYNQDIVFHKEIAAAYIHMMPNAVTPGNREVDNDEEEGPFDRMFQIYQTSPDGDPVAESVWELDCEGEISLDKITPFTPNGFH
NOP, sequence (P41146 whole entry): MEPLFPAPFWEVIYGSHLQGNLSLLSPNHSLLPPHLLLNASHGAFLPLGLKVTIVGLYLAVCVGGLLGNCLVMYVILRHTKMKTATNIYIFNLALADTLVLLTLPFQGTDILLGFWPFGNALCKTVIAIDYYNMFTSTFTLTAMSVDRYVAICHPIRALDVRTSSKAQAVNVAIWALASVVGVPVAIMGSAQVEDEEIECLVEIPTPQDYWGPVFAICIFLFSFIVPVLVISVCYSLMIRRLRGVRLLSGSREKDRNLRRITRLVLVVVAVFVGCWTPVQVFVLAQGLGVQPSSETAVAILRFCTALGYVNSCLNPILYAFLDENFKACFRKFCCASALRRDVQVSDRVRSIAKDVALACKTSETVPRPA
DOR, sequence (P41143 whole entry): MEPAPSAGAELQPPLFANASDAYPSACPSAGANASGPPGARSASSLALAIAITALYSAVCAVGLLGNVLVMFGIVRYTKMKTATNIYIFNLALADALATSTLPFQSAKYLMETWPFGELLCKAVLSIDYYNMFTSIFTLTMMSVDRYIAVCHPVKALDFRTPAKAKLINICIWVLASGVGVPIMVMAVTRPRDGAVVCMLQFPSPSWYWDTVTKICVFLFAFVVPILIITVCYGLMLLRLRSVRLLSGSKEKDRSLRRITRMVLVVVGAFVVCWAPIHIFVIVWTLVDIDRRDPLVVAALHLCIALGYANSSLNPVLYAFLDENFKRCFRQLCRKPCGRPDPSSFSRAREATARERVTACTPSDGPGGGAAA
HERG, sequence (Q12809 whole entry): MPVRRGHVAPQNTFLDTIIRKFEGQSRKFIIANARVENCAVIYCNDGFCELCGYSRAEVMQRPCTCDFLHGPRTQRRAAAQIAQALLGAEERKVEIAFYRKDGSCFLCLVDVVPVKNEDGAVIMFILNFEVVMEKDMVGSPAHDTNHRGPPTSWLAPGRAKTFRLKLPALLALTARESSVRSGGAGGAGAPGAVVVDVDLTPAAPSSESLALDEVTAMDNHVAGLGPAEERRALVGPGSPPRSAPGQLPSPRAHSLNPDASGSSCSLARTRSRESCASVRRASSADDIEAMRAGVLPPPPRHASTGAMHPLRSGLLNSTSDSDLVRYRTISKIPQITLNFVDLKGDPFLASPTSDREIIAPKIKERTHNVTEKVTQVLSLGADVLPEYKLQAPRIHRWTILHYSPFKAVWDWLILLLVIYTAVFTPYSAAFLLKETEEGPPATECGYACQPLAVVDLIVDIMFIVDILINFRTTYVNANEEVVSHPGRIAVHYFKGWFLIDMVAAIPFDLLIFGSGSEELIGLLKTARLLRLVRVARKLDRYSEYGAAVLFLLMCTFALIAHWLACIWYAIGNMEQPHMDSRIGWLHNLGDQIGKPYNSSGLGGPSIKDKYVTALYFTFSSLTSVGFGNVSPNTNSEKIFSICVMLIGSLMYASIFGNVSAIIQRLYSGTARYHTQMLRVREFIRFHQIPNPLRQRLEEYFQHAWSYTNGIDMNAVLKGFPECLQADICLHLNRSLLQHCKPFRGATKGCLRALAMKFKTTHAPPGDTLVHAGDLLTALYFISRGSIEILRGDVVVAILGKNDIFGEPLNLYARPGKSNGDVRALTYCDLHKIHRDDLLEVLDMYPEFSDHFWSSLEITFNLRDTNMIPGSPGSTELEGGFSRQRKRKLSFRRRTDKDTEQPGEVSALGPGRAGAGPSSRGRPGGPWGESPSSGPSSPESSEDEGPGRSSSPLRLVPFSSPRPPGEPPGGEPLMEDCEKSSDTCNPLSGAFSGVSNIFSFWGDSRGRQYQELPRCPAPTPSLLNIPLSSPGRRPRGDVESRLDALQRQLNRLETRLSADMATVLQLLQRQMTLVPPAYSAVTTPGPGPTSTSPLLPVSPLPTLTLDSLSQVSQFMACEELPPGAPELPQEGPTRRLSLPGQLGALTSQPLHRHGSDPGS
β3, sequence (P13945 whole entry): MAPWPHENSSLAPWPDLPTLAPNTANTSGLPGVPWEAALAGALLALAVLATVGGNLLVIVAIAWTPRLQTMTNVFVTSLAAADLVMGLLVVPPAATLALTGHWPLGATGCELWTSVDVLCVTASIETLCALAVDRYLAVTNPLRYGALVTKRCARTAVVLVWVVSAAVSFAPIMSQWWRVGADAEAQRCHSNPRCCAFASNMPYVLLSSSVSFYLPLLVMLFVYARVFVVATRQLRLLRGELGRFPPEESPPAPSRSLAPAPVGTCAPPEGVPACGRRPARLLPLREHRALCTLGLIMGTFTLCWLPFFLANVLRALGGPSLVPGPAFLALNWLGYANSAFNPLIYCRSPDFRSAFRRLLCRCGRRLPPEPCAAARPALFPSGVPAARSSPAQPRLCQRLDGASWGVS

For the compound `COc1cc(CCNCc2ccccc2OCCF)c(OC)cc1Br` [compound 1, 2-(4-bromo-2,5-dimethoxyphenyl)-N-(2-(2-fluoroethoxy)benzyl)ethanamine], the pKi is 6.30 at Sigma1; 6.06 at PBR; 7.29 on Sigma2; below 5.00 at D5; below 5.00 on DAT; below 5.00 at DOR. Moreover, the pKi on HERG, on NOP, on β1 and at β3 was below 5.00 each time.

The values are drawn from article PMC4816213 (Bioorganic & medicinal chemistry letters, 2015).
